Results reported in ChEMBL document CHEMBL1201862, “PubChem BioAssay data set” (2004).
Calls of active or inactive are those of the source.

What was measured:
[1] = test system: Escherichia coli; experiment: microbe, parasite or virus in culture
[2] = molecular target: Voltage-gated inwardly rectifying potassium channel KCNH2 (Homo sapiens, UniProt Q12809); conditions: Potency;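 also: confirmatory quantitative high-throughput screen measuring inhibition of hERG channel activity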
[3] = molecular target: CAAX prenyl protease 2 (Homo sapiens, UniProt Q9Y256); experiment: human Rce1 protease inhibitors, dose response, biochemical, yeast membranes, quenched-peptide fluorescence, cherry-pick (AID 588849)
[4] = microbe, parasite or virus in culture; assay type: functional; conditions: Mycobacterium tuberculosis
[5] = test system: Jurkat; experiment: antigen receptor-induced NF-kB inhibitors, dose response, Jurkat, luciferase reporter, luminescence, B- and T-cell (AID 489004); assay type: functional, cell-based; conditions: Homo sapiens;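 also: NF-kB luciferase reporter Jurkat cells stimulated with PMA plus ionomycin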
[6] = cytotoxicity in HEK-293T NF-kB-Luc cells, dose response, cytotoxicity control for B/T-cell NF-kB inhibitor project, cell-based, uHTS hits (AID 489019); assay type: functional;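 also: IC50 reflects cytotoxicity as loss of cell viability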
[7] = molecular target: T1, Replicative DNA helicase DnaB (Mycobacterium tuberculosis, UniProt P9WMR3); experiment: DnaB intein splicing inhibitors, dose response, biochemical, cell-free fluorescence (AID 449749); assay type: functional
T1 sequence (P9WMR3 whole entry): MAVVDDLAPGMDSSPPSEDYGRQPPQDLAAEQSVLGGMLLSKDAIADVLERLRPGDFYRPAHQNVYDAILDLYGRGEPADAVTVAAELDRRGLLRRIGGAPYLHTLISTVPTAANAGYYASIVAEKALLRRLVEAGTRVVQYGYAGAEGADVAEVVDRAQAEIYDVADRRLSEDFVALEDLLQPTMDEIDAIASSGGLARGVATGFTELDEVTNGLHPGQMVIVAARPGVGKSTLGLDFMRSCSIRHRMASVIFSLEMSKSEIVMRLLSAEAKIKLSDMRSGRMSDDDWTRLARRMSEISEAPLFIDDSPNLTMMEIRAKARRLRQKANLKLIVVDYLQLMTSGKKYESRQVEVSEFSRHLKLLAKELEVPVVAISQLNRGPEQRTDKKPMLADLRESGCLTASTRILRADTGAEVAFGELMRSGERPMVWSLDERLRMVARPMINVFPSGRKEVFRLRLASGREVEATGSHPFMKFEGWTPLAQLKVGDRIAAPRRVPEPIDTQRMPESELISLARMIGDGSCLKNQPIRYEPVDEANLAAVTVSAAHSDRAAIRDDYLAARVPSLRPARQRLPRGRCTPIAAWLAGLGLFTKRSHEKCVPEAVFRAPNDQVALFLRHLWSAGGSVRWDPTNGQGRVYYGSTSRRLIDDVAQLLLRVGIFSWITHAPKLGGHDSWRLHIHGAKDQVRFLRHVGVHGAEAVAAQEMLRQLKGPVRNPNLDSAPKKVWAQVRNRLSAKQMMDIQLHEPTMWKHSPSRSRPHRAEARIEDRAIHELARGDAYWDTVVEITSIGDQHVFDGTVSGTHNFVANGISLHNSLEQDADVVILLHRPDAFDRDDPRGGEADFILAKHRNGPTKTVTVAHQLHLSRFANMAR

[8] = molecular target: T2, Protein RecA (Mycobacterium tuberculosis, UniProt P9WHJ3); experiment: Fluorescence Cell-Free Homogeneous Dose Retest to Identify Inhibitors of RecA-Intein Splicing Activity. [Related pubchem assays (depositor defined):AID2097, AID2223, AID489010, AID492950]; assay type: functional
T2 sequence (P9WHJ3 whole entry): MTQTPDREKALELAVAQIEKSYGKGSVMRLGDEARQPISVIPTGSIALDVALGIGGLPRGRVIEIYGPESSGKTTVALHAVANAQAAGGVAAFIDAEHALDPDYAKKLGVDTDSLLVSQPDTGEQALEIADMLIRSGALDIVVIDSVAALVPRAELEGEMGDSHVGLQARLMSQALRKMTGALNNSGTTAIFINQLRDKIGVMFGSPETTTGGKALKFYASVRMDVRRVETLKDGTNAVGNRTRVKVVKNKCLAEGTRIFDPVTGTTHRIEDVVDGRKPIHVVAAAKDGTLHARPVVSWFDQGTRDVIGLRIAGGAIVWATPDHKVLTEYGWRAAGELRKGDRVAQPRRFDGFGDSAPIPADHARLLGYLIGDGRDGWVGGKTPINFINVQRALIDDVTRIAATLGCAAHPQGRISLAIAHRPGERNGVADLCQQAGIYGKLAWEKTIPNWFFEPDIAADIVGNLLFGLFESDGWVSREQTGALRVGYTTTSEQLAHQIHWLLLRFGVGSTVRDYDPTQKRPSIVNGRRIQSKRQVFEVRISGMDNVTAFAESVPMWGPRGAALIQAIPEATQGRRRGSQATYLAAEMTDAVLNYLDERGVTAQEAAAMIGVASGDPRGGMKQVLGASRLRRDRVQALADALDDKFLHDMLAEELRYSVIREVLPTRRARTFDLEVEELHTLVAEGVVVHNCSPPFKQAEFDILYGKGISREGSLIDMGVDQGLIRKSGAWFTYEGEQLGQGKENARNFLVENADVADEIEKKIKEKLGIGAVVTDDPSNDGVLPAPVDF

[9] = test system: INS1; experiment: beta cell apoptosis inhibitors, cytokine rescue, dose response, luminescence, retest (AID 449756); assay type: functional, cell-based; conditions: Rattus norvegicus;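 also: cell death triggered by IL-1 beta plus TNF-alpha plus IFN-gamma mixture; protective hits raise ATP signal compared with cytokine alone wells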
[10] = molecular target: T3, Sentrin-specific protease 8 (Homo sapiens, UniProt Q96LD8); assay type: functional
T3 sequence (Q96LD8 whole entry): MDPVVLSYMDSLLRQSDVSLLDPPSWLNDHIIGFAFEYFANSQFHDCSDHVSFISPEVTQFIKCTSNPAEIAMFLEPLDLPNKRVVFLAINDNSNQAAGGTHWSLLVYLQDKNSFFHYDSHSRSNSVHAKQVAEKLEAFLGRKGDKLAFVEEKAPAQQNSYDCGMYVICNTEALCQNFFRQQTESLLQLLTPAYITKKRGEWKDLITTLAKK

[11] = molecular target: T3, Sentrin-specific protease 8; assay type: functional; remark: listed apart in the source
[12] = molecular target: DNA repair protein RAD52 homolog (Homo sapiens, UniProt P43351); assay type: functional, biochemical
[13] = molecular target: T4, Caspase-6 (Homo sapiens, UniProt P55212); experiment: human caspase-6 inhibitors, dose response, biochemical, VEID-R110 fluorescence, cherry-pick (AID 720632)
T4 sequence (P55212 whole entry): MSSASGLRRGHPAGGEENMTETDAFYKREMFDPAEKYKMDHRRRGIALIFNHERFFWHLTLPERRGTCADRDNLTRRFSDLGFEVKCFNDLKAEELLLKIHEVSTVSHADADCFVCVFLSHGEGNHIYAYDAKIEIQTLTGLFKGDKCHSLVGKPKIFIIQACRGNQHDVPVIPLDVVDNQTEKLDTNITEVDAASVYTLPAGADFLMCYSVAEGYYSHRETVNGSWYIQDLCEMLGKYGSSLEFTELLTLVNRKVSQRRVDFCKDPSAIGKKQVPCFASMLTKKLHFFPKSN

[14] = molecular target: T5, Caspase-9 (Homo sapiens, UniProt P55211); experiment: caspase-9 enzyme inhibition, dose response, selectivity assay for caspase-6 inhibitor project, biochemical, fluorescence, plate reader, cherry-picked samples (AID 743293)
T5 sequence (P55211 whole entry): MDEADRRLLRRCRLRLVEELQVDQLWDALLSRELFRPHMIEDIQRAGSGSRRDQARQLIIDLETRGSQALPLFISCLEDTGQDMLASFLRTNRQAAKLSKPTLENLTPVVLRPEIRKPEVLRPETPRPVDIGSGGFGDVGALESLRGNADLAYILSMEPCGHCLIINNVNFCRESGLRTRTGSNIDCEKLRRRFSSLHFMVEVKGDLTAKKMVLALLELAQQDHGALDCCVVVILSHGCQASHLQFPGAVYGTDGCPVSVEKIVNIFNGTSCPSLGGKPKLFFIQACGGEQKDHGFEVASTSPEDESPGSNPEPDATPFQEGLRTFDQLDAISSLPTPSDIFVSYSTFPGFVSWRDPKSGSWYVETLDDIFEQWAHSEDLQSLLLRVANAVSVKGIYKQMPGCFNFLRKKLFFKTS

[15] = molecular target: T6, Caspase-7 (Homo sapiens, UniProt P55210); experiment: human caspase-7 inhibitors, dose response, selectivity assay for caspase-6 inhibitor project, biochemical, DEVD-R110 fluorescence, cherry-pick (AID 743295)
T6 sequence (P55210 whole entry): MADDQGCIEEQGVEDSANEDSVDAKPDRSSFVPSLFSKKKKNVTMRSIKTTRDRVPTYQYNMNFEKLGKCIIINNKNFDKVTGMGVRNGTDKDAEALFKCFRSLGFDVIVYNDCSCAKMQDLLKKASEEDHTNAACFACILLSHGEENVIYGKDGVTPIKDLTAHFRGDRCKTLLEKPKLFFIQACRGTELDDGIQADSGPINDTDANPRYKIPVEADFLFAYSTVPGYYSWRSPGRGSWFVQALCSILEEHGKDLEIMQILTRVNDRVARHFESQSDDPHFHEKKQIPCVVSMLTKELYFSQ

[16] = molecular target: Caspase-8 (Homo sapiens, UniProt Q14790); experiment: caspase-8 inhibition counter-screen, dose response, selectivity assay for caspase-6 inhibitor project, biochemical, Z-IETD-R110 fluorescence, cherry-picked samples (AID 743294)
[17] = test system: Vero; experiment: host cell cytotoxicity of antiviral hits, dose response, cytotoxicity control for West Nile virus antiviral project, secondary assay (AID 1650); assay type: functional; conditions: Chlorocebus sabaeus
[18] = inhibitors of intracellular T. cruzi replication, confirmation, NIH3T3 host cells, beta-gal luminescence (AID 2044); assay type: functional, cell-based;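 also: intracellular parasites grown in NIH/3T3 mouse fibroblasts as host cells; luminescent beta-galactosidase reporter signal from transgenic T. cruzi replicating inside host cells; inhibitors lower the luminescence signal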
[19] = cytotoxicity toward NIH3T3 fibroblasts, dose response, counter-screen, cell-based, ATP luminescence, mouse fibroblasts (AID 2010); assay type: functional;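 also: cells exposed to compound for about 90 hours before reading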
[20] = molecular target: DNA damage-inducible transcript 3 protein (Mus musculus, UniProt P35639); assay type: functional, Cricetulus griseus
[21] = molecular target: T7, Cysteine protease ATG4B (Homo sapiens, UniProt Q9Y4P1); assay type: functional;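 also: Fluorescence-based dose-response confirmation assay measuring inhibition of ATG4B activity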
T7 sequence (Q9Y4P1 whole entry): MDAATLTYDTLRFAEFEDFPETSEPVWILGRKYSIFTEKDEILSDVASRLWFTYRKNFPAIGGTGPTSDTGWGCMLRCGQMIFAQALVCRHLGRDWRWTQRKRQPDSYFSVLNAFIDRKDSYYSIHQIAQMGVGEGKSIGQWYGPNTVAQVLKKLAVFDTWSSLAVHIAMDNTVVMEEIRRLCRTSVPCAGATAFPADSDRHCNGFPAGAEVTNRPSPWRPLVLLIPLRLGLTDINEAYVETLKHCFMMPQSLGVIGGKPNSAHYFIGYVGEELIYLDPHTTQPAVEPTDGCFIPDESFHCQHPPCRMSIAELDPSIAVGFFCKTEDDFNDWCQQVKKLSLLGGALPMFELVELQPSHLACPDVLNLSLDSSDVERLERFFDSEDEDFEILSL

[22] = molecular target: X-box-binding protein 1 (Homo sapiens, UniProt P17861); assay type: functional, Cricetulus griseus;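 also: confirmatory dose-response counter-screen serving a CHOP assay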
[23] = molecular target: Phospholipase A2 (Homo sapiens, UniProt P04054); assay type: functional;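 also: confirmatory dose-response counterscreen on phospholipase A2, testing hits that came from an ultra-high-throughput screen for ATG4B inhibitors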
[24] = molecular target: Delta-type opioid receptor (Homo sapiens, UniProt P41143); experiment: Counterscreen for agonists of heterodimerization of the mu 1 (OPRM1) and delta 1 (OPRD1) opioid receptors: Luminescence-based cell-based high throughput dose response assay to identify agonists of OPRD1 homodimerization. [Related pubchem assays (depositor defined):AID504326, AID504355, AID504692, AID504904, AID504905]; assay type: functional
[25] = molecular target: Mu-type opioid receptor (Homo sapiens, UniProt P35372); experiment: Counterscreen for agonists of heterodimerization of the mu 1 (OPRM1) and delta 1 (OPRD1) opioid receptors: Luminescence-based cell-based high throughput dose response assay to identify agonists of OPRM1 homodimerization.; assay type: functional;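 also: U2OS cells expressing OPRM1 and beta-arrestin as split beta-galactosidase partners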
[26] = molecular target: 5-hydroxytryptamine receptor 5A (Homo sapiens, UniProt P47898); experiment: Counterscreen for agonists of OPRM1-OPRD1 heterodimerization: luminescence-based cell-based high throughput dose response assay to identify agonists of 5-hydroxytryptamine (serotonin) 5A receptor (HTR5A). [Related pubchem assays (depositor defined):AID504326, AID504355, AID504692, AID504904, AID504905]; assay type: functional
[27] = miR-122 activators in hepatoma reporter cells, dose response, cell-based, Huh7 psiCHECK-miR122, Renilla luciferase, cherry-picked (AID 651956); assay type: functional;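 also: huh7 hepatoma cells stably carrying a psiCHECK-2 miR-122 sensor plasmid; renilla luciferase signal reporting endogenous miR-122 activity after 48 h compound exposure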
[28] = HEK293T cytotoxicity, dose response, cytotoxicity control for miR-122 modulator project, cell-based, inhibitor set, cherry-pick, set 2 (AID 720697); assay type: functional
[29] = HEK293T cytotoxicity, dose response, cytotoxicity control for miR-122 modulator project, cell-based, activator set, cherry-pick (AID 720690); assay type: functional;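 also: HEK293T human cells scored for general mammalian cytotoxicity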

X-box-binding protein 1, sequence (P17861 whole entry): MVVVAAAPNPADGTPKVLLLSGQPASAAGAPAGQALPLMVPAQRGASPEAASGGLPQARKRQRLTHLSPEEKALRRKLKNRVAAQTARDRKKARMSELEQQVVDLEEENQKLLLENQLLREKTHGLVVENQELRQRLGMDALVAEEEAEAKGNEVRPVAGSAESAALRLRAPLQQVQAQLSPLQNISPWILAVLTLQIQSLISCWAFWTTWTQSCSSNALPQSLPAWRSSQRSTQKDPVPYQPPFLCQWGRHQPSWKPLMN
DNA repair protein RAD52 homolog, sequence (P43351 whole entry): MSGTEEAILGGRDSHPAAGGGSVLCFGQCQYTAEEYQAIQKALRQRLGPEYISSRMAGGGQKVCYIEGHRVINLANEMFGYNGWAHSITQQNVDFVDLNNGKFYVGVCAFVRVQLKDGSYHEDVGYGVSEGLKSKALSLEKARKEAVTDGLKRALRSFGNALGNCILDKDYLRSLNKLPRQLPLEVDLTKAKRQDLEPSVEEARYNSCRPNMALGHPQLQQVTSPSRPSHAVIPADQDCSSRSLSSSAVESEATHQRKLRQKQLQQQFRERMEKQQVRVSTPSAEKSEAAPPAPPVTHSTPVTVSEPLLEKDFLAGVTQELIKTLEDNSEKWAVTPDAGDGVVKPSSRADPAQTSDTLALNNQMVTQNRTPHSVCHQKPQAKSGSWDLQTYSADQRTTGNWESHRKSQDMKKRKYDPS
Mu-type opioid receptor, sequence (P35372 whole entry): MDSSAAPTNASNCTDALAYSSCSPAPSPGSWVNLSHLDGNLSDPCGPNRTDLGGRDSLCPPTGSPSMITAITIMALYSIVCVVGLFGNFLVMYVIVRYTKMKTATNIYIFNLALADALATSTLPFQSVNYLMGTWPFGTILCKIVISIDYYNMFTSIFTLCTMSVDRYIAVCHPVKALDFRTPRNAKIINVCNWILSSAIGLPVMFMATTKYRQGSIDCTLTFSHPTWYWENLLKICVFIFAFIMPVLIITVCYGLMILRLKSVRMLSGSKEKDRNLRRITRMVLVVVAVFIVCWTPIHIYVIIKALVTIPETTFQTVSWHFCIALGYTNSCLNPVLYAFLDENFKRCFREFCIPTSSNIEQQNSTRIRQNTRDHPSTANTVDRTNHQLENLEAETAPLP
DNA damage-inducible transcript 3 protein, sequence (P35639 whole entry): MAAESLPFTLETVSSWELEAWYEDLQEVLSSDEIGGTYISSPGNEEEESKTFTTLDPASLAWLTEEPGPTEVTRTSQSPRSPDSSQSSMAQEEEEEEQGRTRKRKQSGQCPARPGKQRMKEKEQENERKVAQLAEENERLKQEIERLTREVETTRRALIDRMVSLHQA
Caspase-8, sequence (Q14790 217-374 limits assumed): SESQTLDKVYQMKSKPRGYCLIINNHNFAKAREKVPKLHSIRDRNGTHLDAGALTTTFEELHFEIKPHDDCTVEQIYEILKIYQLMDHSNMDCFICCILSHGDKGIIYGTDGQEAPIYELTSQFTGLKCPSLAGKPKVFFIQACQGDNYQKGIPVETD
Caspase-8, sequence (Q14790 385-479 limits assumed): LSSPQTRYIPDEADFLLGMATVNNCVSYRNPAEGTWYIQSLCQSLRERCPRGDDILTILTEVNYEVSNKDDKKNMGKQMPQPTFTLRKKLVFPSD
5-hydroxytryptamine receptor 5A, sequence (P47898 whole entry): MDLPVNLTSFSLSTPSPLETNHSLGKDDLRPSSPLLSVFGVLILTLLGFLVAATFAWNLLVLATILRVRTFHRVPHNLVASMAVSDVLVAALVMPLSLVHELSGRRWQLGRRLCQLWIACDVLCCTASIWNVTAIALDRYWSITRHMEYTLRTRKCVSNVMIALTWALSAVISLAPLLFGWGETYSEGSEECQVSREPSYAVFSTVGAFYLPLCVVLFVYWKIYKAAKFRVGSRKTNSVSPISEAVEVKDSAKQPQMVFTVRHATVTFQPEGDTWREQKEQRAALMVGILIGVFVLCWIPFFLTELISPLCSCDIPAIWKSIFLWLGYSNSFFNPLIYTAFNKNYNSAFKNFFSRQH
Phospholipase A2, sequence (P04054 whole entry): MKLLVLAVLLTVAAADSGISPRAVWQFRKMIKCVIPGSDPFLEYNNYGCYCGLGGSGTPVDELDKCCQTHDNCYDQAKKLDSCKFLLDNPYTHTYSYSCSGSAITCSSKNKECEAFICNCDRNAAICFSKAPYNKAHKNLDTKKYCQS
Voltage-gated inwardly rectifying potassium channel KCNH2, sequence (Q12809 whole entry): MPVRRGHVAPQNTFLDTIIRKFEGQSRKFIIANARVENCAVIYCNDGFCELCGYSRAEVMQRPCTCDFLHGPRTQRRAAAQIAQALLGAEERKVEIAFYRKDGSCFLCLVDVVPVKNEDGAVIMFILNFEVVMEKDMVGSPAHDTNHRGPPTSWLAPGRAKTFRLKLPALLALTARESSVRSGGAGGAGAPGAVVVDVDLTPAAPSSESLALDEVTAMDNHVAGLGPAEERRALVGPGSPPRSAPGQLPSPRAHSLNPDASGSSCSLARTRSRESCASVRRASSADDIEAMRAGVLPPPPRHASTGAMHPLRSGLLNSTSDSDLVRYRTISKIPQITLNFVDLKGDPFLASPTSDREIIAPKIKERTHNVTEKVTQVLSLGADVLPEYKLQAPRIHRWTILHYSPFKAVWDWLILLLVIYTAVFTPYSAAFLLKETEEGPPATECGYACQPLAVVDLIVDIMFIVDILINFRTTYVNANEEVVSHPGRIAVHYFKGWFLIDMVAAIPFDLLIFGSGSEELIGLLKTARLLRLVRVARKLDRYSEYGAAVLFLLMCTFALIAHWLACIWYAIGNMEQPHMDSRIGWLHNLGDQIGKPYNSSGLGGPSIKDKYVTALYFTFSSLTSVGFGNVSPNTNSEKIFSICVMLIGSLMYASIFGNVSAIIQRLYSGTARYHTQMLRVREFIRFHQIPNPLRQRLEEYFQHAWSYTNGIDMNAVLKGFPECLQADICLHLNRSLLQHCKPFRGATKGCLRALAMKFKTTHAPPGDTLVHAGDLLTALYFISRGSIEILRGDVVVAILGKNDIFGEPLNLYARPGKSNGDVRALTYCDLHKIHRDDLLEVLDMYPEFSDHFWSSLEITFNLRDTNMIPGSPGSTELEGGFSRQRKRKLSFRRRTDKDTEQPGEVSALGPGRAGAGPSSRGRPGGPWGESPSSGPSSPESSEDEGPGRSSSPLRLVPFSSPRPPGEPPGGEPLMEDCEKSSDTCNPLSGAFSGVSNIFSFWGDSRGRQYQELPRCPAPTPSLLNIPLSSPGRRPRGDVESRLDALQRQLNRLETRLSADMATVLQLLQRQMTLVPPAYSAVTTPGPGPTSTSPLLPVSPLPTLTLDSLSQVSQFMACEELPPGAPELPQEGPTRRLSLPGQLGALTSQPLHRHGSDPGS
CAAX prenyl protease 2, sequence (Q9Y256 whole entry): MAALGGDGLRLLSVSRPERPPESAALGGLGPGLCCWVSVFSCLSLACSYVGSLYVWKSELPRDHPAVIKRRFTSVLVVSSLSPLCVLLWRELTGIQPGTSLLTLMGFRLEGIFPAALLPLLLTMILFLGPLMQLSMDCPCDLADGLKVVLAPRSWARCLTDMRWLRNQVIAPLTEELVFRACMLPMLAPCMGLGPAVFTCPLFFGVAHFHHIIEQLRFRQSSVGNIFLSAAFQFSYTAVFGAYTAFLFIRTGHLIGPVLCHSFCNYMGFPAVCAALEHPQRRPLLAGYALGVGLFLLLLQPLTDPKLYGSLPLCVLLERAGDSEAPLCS
Delta-type opioid receptor, sequence (P41143 whole entry): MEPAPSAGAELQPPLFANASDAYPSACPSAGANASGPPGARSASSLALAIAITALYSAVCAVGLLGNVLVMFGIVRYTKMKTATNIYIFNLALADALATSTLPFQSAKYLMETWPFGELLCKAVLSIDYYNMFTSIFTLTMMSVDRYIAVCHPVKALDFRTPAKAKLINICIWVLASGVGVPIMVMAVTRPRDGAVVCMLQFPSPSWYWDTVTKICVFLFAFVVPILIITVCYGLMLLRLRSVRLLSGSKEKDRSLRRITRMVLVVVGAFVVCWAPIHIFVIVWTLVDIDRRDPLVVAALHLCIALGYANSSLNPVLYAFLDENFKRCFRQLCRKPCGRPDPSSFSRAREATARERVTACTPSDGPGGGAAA

## Cc1csc(NC(=O)c2c(-c3c(Cl)cccc3Cl)noc2C)n1
[1]
  AC50: 32.8 µM (active)

## N#CC(Cc1ccc(O)c(O)c1)C(=O)N1CCc2ccccc21 (centres undefined)
[2]
  AC50: 15.8 µM (inconclusive)

## O=C(CCNS(=O)(=O)c1ccc2nc(O)oc2c1)NCc1ccccc1
[3]
  AC50: > 100 µM (inactive)

## COc1cc(NC(C)CCCN)c2ncccc2c1 (centres undefined) [PRIMAQUINE PHOSPHATE]
[4]
  CC50: > 40 µM (active)
[5]
  IC50: 38 µM (inactive)
[6]
  IC50: > 80 µM (inactive)
[7]
  AC50: 9.98 µM (active)
[8]
  EC50: 1.17 µM (active)
[9]
  AC50: 3.83 µM (active)
[10]
  IC50: 0.987 µM (active)
[11]
  IC50: 0.935 µM (active)
[12]
  AC50: 5.55 µM (active)
[13]
  AC50: 1.9 µM (active)
[14]
  AC50: > 70 µM (inactive)
[15]
  AC50: 4.07 µM (active)
[16]
  AC50: 57.9 µM (active)

## Clc1ccc2c(N/N=C/c3ccccc3Br)ccnc2c1
[17]
  CC50: 7.23 µM (active)
[18]
  EC50: 1.02 µM (active)
[19]
  EC50: > 60 µM (not active)
[20]
  Absolute IC50 (CHOP): 10 µM
[21]
  IC50: 3.17 µM (active)
[22]
  Absolute IC50 (XBP1): 10 µM
[23]
  IC50: 1.75 µM (active)
[24]
  EC50: > 92.5 µM (inactive)
[25]
  EC50: > 92.5 µM (inactive)
[26]
  EC50: > 92.5 µM (inactive)
[27]
  AC50: 39.6 µM (active)
[28]
  AC50: 7.49 µM (active)
[29]
  AC50: 16 µM (active)
